The structures appear in SMILES notation. pIC50: −log10 of the molar value. Values after ≈ are worked out from the molar mass of the structure shown. Active and inactive are the calls of the source. The calls are words filed in the database; no cut-off is given here.

One assay deals with Nakaseomyces glabratus. The assay is described as follows: Antifungal activity against Candida glabrata MTCC 3019 at 1.4 to 300 ug/ml after 24 hr by microtiter broth dilution method. Type of assay: functional, organism-based. A general note: Broth dilution looks for growth in wells or tubes with falling amounts of substance.
For a further assay, the system named is MCF7. The assay is described as follows: Cytotoxicity against Homo sapiens (human) MCF7 cells by tetrazolium-reduction assay. It counts as functional, cell-based. Conditions: for pIC50: Homo sapiens, MCF7, read-out: IC50.
Another assay relates to A549. Put plainly: Cytotoxicity against Homo sapiens (human) A549 cells by tetrazolium-reduction assay. It counts as functional, cell-based.
Assay [1] has as its system Candida albicans. The assay is described as follows: Antifungal activity against Candida albicans MTCC 7315 at 1.4 to 300 ug/ml after 24 hr by microtiter broth dilution method. Type of assay: functional, organism-based.
The subject of the next assay is Micrococcus luteus. Put plainly: Antibacterial activity against Micrococcus luteus MTCC 2470 at 1.4 to 300 ug/ml after 24 hr by microtiter broth dilution method. It counts as functional, organism-based.
The test system of assay [2] is Staphylococcus aureus. The assay is described as follows: Antibacterial activity against Staphylococcus aureus MTCC 96 after 24 hr by microtiter broth dilution method. Conditions: MTCC 96, 24 h. It counts as functional.
In the next assay the test system is Pseudomonas aeruginosa. Put plainly: Antibacterial activity against Pseudomonas aeruginosa MTCC 2453 after 24 hr by microtiter broth dilution method. Type of assay: functional.
Assay [3] has as its system Candida albicans. Put plainly: Antifungal activity against Candida albicans MTCC 3958 at 1.4 to 300 ug/ml after 24 hr by microtiter broth dilution method. It counts as functional, organism-based.
Another assay relates to Candida parapsilosis. Put plainly: Antifungal activity against Candida parapsilosis MTCC 1744 at 1.4 to 300 ug/ml after 24 hr by microtiter broth dilution method. It counts as functional, organism-based.
Assay [4] deals with Candida albicans. Put plainly: Antifungal activity against Candida albicans MTCC 227 at 1.4 to 300 ug/ml after 24 hr by microtiter broth dilution method. It counts as functional, organism-based.
Another assay deals with Escherichia coli. Put plainly: Antibacterial activity against Escherichia coli MTCC 739 at 1.4 to 300 ug/ml after 24 hr by microtiter broth dilution method. Type of assay: functional, organism-based.
A further assay concerns [Candida] aaseri. Put plainly: Antifungal activity against Candida aaseri MTCC 1962 at 1.4 to 300 ug/ml after 24 hr by microtiter broth dilution method. It counts as functional, organism-based.
Assay [5] deals with Candida albicans. The assay is described as follows: Antifungal activity against Candida albicans MTCC 854 at 1.4 to 300 ug/ml after 24 hr by microtiter broth dilution method. Type of assay: functional, organism-based.
Assay [6] relates to Staphylococcus aureus. Put plainly: Antibacterial activity against Staphylococcus aureus MLS16 MTCC 2940 after 24 hr by microtiter broth dilution method. It counts as functional.
Another assay relates to HepG2. Put plainly: Cytotoxicity against Homo sapiens (human) HepG2 cells by tetrazolium-reduction assay. Type of assay: functional, cell-based.
Another assay has as its system MDA-MB-231. Put plainly: Cytotoxicity against Homo sapiens (human) MDA-MB-231 cells by tetrazolium-reduction assay. It counts as functional, cell-based.
For assay [7], the system named is Candida albicans. Put plainly: Antifungal activity against Candida albicans MTCC 3018 at 1.4 to 300 ug/ml after 24 hr by microtiter broth dilution method. Type of assay: functional, organism-based.
For assay [8], the system named is Candida albicans. Put plainly: Antifungal activity against Candida albicans MTCC 1637 at 1.4 to 300 ug/ml after 24 hr by microtiter broth dilution method. Type of assay: functional, organism-based.
The test system of the next assay is HeLa. The assay is described as follows: Cytotoxicity against Homo sapiens (human) HeLa cells by tetrazolium-reduction assay. It counts as functional, cell-based.
In assay [9] the test system is Candida albicans. Put plainly: Antifungal activity against Candida albicans MTCC 183 at 1.4 to 300 ug/ml after 24 hr by microtiter broth dilution method. It counts as functional, organism-based.
The next assay deals with Bacillus subtilis. Put plainly: Antibacterial activity against Bacillus subtilis MTCC 121 after 24 hr by microtiter broth dilution method. Type of assay: functional.
The next assay concerns N2a. Put plainly: Cytotoxicity against Mus musculus (mouse) Neuro2a cells by tetrazolium-reduction assay. It counts as functional, cell-based.
The next assay concerns Raoultella planticola. Put plainly: Antibacterial activity against Raoultella planticola MTCC 530 at 1.4 to 300 ug/ml after 24 hr by microtiter broth dilution method. It counts as functional, organism-based.
For assay [10], the system named is Candida albicans. The assay is described as follows: Antifungal activity against Candida albicans MTCC 3017 at 1.4 to 300 ug/ml after 24 hr by microtiter broth dilution method. It counts as functional, organism-based.

The MIC is the lowest concentration that inhibits growth of the organism. As usually defined, the pIC50 is the IC50 on a negative log10 scale, so that one unit is a factor of ten. Take `CCCCCCCCCCCCCCCCCC(=O)Oc1ccc(/C=N/Cc2cccnc2)cc1`: the outcome in the assay on Nakaseomyces glabratus, with A549, in the assay on Candida albicans [1], in the assay with Micrococcus luteus, in the assay on Candida albicans [3] and with Candida parapsilosis was inactive. For the same molecule, the outcome (in the assay with Candida albicans [4]; with Escherichia coli; in assay [Candida] aaseri; with Candida albicans [5]; with HepG2; in the assay with Candida albicans [7]) was inactive. For the same molecule, the result in the assay on Candida albicans [8], in the assay on HeLa, in the assay with Candida albicans [9], in the assay on N2a, with Raoultella planticola and in the assay on Candida albicans [10] was inactive. Moreover, in the assay with MCF7 (mcf7), the IC50 entry is recorded as “Not Active”. Moreover, the MIC in the assay with Staphylococcus aureus [2] was 300 µg/mL (≈ 627 µM); in the assay with Pseudomonas aeruginosa (MTCC 2453, 24 h), 300 µg/mL (≈ 627 µM); in the assay with Staphylococcus aureus [6] (MLS16 MTCC 2940, 24 h), 300 µg/mL (≈ 627 µM). This molecule had a pIC50 in the assay with MDA-MB-231 of 4.94. For the same molecule, in the assay on Bacillus subtilis, the MIC result was “inactive”.
As to `Oc1ccc(/C=N/Cc2cccnc2)cc1`, the outcome in the assay on Nakaseomyces glabratus, in the assay on A549, in the assay on Candida albicans [1], in the assay with Candida albicans [3], in the assay on Candida parapsilosis and with Candida albicans [4] was inactive. Also, the result (in assay [Candida] aaseri; with Candida albicans [5]; with HepG2; with Candida albicans [7]; in the assay with Candida albicans [8]; with HeLa) was inactive. In addition, the outcome in the assay on Candida albicans [9], with N2a and with Candida albicans [10] was inactive. The values for the pIC50 in the assay on MCF7 and with MDA-MB-231 were 4.92 and 4.77, respectively. For the same molecule, 75 µg/mL (≈ 353 µM) was the least that counted as inhibitory in the assay with Staphylococcus aureus [2] (MIC). The MIC entry in the assay on Pseudomonas aeruginosa, with Staphylococcus aureus [6] and in the assay on Bacillus subtilis was “inactive” throughout.
As to `CCCCCCCCCCCC(=O)Oc1ccc(/C=N/Cc2cccnc2)cc1`, the result with Nakaseomyces glabratus, in the assay on A549, with Candida albicans [1], in the assay on Micrococcus luteus, in the assay with Candida albicans [3] and in the assay on Candida parapsilosis was inactive. Also, the outcome (in the assay with Candida albicans [4]; in the assay on Escherichia coli; in [Candida] aaseri; in the assay on Candida albicans [5]; in the assay on HepG2; with Candida albicans [7]) was inactive. Also, the result in the assay with Candida albicans [8], in the assay with HeLa, in the assay on Candida albicans [9], in the assay with N2a, in the assay with Raoultella planticola and with Candida albicans [10] was inactive. In addition, the negative logarithm of the IC50 (pIC50) in the assay on MCF7 is 4.75; in the assay on MDA-MB-231, 4.72. The MIC in the assay on Staphylococcus aureus [2] came to 150 µg/mL (≈ 380 µM); in the assay on Staphylococcus aureus [6] (MLS16 MTCC 2940, 24 h), 150 µg/mL (≈ 380 µM). The MIC result in the assay on Pseudomonas aeruginosa and with Bacillus subtilis was “inactive” throughout.

These data come from ChEMBL document CHEMBL3045812, “Synthesis of fatty acid Schiff base esters as potential antimicrobial and chemotherapeutic agents” (Med Chem Res, 2013).
